The record followed here is paper PMC8011931, “Identification, Structure–Activity Relationship, and Biological Characterization of 2,3,4,5-Tetrahydro-1H-pyrido[4,3-b]indoles as a Novel Class of CFTR Potentiators” (Journal of Medicinal Chemistry, 2020).

Values joined by “and” are separate entries in the source; they are usually repeats but may differ in a detail not shown here. Equal values may be shown once. Read-outs that look alike come from different tables or passages of the source. Where only a bound is given, the exact number is not on record here.

The nature of data set [1]: Pharmacokinetics after i.v. and p.o. administration to rats. The class given is in vivo, Sprague–Dawley rats. The conditions noted are these: for half-life at 4 h: read-out: half-life (min) (elimination phase). As for the experimental part:
Based on both its biological profile, showing a good efficacy in primary and secondary assays, and preliminary in vitro ADME properties, potentiator 39 was further evaluated in in vivo studies. […]
Male Sprague–Dawley rats, 2 month old and weighing 175–200 g (Charles River, Calco, Italy), were used. Animals were group-housed in ventilated cages and had free access to food and water. They were maintained under a 12 h light/dark cycle (lights on at 8:00 am) at a controlled temperature (21 ± 1 °C) and relative humidity (55 ± 10%). All experiments were carried out in accordance with the guidelines established by the European Communities Council Directive (Directive 2010/63/EU of September 22, 2010) and approved by the National Council on Animal Care of the Italian Ministry of Health. All efforts were made to minimize animal suffering and to use the minimal number of animals required to produce reliable results.
[…] PEG400/Tween 80/saline solution was used as a vehicle at 10/10/80% in volume, respectively. Three animals per dose were treated. Blood samples at 0, 15, 30, 60, 90, 120, 240, and 360 min after administration were collected for p.o. arm. Blood samples at 0, 5, 15, 30, 60, 90, 120, and 240 min after administration were collected for i.v. arm. Plasma was separated from blood by centrifugation for 15 min at 3500 rpm at 4 °C, collected in an Eppendorf tube, and frozen (−80 °C). Control animals treated with vehicle only were also included in the experimental protocol.
Plasma samples were centrifuged at 21,100g for 15 min at 4 °C, while homogenized lung samples were vigorously whirled. An aliquot of each sample was extracted (1:3) with cold CH3CN containing 200 nM of an appropriate internal standard being a close analogue of the parent compound. A calibration curve was prepared in both blank mouse plasma and naïve lung homogenate over a 1 nM to 10 μM range. Three quality controls were prepared by spiking the parent compound in both blank mouse plasma and naïve lung homogenate to 20, 200, and 2000 nM as final concentrations. The calibrators and quality controls were extracted (1:3) with the same extraction solution as the plasma and lung samples. The plasma and lung samples, the calibrators, and quality controls were centrifuged at 3270g for 15 min at 4 °C. The supernatants were further diluted (1:1) with H2O and analyzed by LC/MS–MS on a Waters ACQUITY UPLC/MS TQD system consisting of a TQD mass spectrometer equipped with an electrospray ionization interface and a photodiode array eλ detector. Electrospray ionization was applied in the positive mode. Compound-dependent parameters such as MRM transitions and collision energy were developed for the parent compound and the internal standard. The mobile phase was H2O + 0.1% HCOOH (A) and CH3CN + 0.1% HCOOH (B) at a flow rate of 0.5 mL/min. For plasma samples, the analyses were run on an ACQUITY UPLC BEH C18 (50 × 2.1 mm ID, particle size 1.7 μm) with a VanGuard BEH C18 precolumn (5 × 2.1 mm ID, particle size 1.7 μm) at 40 °C. A linear gradient was applied starting at 30% B with an initial hold for 0.2 min and then 30–100% B in 2 min. For lung samples, the analyses were run on an ACQUITY UPLC BEH C18 (100 × 2.1 mm ID, particle size 1.7 μm) with a VanGuard BEH C18 precolumn (5 × 2.1 mm ID, particle size 1.7 μm) at 40 °C. A linear gradient was applied starting at 30% B with an initial hold for 0.2 min and then 30–100% B in 6 min. All samples (plasma and lung samples, calibrators, and quality controls) were quantified by MRM peak area response factor in order to determine the levels of the parent compound in plasma and lung. The concentrations versus time data were plotted and the profiles were fitted using PK Solutions Excel Application (Summit Research Service, USA) in order to determine the pharmacokinetic parameters.

The target of a further data set is F508del-CFTR (Homo sapiens, UniProt P13569, DEL508-508). In words: HS-YFP assay on F508del-CFTR CFBE41o- cells, acute stimulation. In kind it is cell-based. Further details: expressed in transfected cells. The conditions noted are these: acute stimulation in the presence of forskolin, Figure 4A. As for the experimental part:
The preliminary activity of these three hits was further evaluated in secondary screening assays. Although featuring the same common scaffold, in order to possibly discriminate the most interesting hit for further structural investigations, the compounds belonging to the family of tetrahydro-γ-carbolines were tested on more relevant cell models. First, the hits were tested on an immortalized bronchial epithelial cell line (CFBE41o-) stably expressing F508del-CFTR and HS-YFP. […]
Prior assay, cells were washed with phosphate-buffered saline (PBS) containing (in mM) 137 NaCl, 2.7 KCl, 8.1 Na2HPO4, 1.5 KH2PO4, 1 CaCl2, and 0.5 MgCl2. […] Cells were then transferred to microplate readers (FluoStar Optima; BMG Labtech, Offenburg, Germany) for CFTR activity determination. The plate readers were equipped with high-quality excitation (HQ500/20X: 500 ± 10 nm) and emission (HQ535/30M: 535 ± 15 nm) filters for YFP (Chroma Technology). The assay consisted of a continuous 14 s fluorescence reading, 2 s before and 12 s after injection of 165 μL of an iodide-containing solution (PBS with Cl^– replaced by I^–; final I^– concentration 100 mM). Data were normalized to the initial background-subtracted fluorescence. […]

Setting [2] is: male, Sprague-Dawley, rat, iv, 3 mg/kg, plasma.
Setting [3] is: male, Sprague-Dawley, rat, plasma, iv, 3 mg/kg.
Setting [4] is: male, Sprague-Dawley, rat, plasma, po, 10 mg/kg.
The mark [5] stands for this setting: male, Sprague-Dawley, rat, po, 10 mg/kg, plasma.

Chain of F508del-CFTR (P13569 with tags, fused parts or gaps DEL508-508): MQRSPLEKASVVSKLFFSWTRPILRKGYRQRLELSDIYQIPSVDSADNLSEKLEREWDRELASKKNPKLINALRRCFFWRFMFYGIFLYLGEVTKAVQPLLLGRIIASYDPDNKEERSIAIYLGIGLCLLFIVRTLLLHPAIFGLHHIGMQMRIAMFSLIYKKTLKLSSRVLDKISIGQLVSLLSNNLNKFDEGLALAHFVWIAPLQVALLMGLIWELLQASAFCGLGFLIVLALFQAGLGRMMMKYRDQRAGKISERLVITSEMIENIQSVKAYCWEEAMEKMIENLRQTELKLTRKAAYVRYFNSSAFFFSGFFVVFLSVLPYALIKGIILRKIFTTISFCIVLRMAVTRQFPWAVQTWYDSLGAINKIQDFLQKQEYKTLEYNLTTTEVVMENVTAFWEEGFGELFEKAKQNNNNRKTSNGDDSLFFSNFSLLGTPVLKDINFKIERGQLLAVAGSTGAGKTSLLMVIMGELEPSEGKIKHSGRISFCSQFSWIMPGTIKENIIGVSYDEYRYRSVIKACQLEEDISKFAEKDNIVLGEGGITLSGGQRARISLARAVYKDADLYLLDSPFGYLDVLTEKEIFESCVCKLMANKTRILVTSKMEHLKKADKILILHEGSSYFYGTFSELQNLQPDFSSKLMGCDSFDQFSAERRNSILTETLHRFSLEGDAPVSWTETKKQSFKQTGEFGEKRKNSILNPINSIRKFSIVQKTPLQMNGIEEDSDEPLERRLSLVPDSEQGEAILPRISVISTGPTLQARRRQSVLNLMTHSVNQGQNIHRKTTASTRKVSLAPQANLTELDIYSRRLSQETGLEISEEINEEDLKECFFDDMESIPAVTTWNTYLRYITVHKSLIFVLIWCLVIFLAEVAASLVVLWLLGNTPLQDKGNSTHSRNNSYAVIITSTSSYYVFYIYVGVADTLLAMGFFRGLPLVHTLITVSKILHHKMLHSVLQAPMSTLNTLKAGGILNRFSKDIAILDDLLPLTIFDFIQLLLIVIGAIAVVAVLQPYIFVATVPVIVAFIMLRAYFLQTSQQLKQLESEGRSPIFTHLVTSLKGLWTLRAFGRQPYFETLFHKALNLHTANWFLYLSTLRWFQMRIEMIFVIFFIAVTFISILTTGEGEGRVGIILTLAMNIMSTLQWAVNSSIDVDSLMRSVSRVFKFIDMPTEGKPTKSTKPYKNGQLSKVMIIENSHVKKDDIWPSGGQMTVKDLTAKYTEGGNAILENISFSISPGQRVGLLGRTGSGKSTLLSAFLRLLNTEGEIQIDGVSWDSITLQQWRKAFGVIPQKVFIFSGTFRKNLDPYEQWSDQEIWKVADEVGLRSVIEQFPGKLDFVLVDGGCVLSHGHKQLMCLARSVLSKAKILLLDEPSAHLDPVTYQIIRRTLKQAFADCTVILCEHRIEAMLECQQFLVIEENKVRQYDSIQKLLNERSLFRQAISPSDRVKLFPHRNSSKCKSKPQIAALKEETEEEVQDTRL

Usually Cmax stands for the highest concentration seen after dosing. For orientation: AUC means concentration integrated over time. A word on the half-life: it is the time in which the quantity being followed falls by half. As a reminder, the bioavailability is dose-corrected exposure relative to a reference, in per cent. Turning to `Cc1ccc(F)c2[nH]c3c(c12)CN(C(=O)c1cc(C(F)(F)F)[nH]n1)[C@H](C)C3` [Compound 39, (R)-(6-Fluoro-3,9-dimethyl-1,3,4,5-tetrahydro-2H-pyrido[4,3-b]indol-2-yl)-(5-(trifluoromethyl)-1H-pyrazol-3-yl)methanone], in data set [1] (setting [2]), the Cmax came out at 2790 ng/mL and the Cmax at 4 h stood at 7.3 µM. Also, in data set [1] (setting [3]), the AUC was 2320 ng·h/mL and 6.1 µM·h; the Tmax at 4 h is 5 min; the Vd at 4 h turned out to be 2.39 L/kg; the clearance at 4 h came to 19 mL/min/kg. Moreover, in data set [1] (setting [3]), the half-life at 4 h stood at 89 min. Also, the bioavailability in data set [1] (male, Sprague-Dawley, rat, plasma, oral, p.o. 10 mg/kg versus i.v. 3 mg/kg, time interval 0–4 h) is around 30%. Moreover, in data set [1] (setting [4]), the AUC was 2330 ng·h/mL and the half-life at 4 h was 212 min. Besides, the concentration at 6 h in data set [1] (male, Sprague-Dawley, rat, plasma, po, 10 mg/kg, read-out: plasma level at 6 h postadministration) was > 450 ng/mL and ~1.2 µM. Besides, the Tmax in data set [1] (male, Sprague-Dawley, rat, plasma, po, 10 mg/kg, read-out: time of maximal plasma concentration) was found to be 2 h. Moreover, the exposure (AUC) in data set [1] (male, Sprague-Dawley, rat, plasma, po, 10 mg/kg, time interval 0–4 h) turned out to be 6.1 µM·h. In addition, the bioavailability at 4 h in data set [1] (male, Sprague-Dawley, rat, plasma, po, p.o. 10 mg/kg versus i.v. 3 mg/kg, time interval 0–4 h) worked out at 30%. In addition, in data set [1] (setting [5]), the Cmax is 769 ng/mL and the Cmax at 4 h came to 2 µM. Further, in data set [1] (p.o., 10 mg/kg), the “Tmax” value is 2 h.

For the molecule `COc1ccc2[nH]c3c(c2c1)CN(C(=O)c1cc(C(F)(F)F)[nH]n1)CC3` [Compound 3, (8-Methoxy-1,3,4,5-tetrahydropyrido[4,3-b]indol-2-yl)-[5-(trifluoromethyl)-1H-pyrazol-3-yl]methanone], at F508del-CFTR, the “dose-dependent activation of mutant CFTR” value is given as “the most effective”.
